According to ChEMBL document CHEMBL3885881, “DrugMatrix”:

Organism: Rattus norvegicus
Test: DrugMatrix - Regimen: Daily Repeat
Format: toxicity, organism-based, Sprague-Dawley
Set-up: regimen Daily Repeat, gender Male, age 6-8 weeks
Details: in vivo, po, route oral GAVAGE, vehicle .5 % CMC; for ABSOLUTE BASOPHIL / ABSOLUTE EOSINOPHIL / ABSOLUTE LYMPHOCYTE / ABSOLUTE MONOCYTE / ABSOLUTE SEGMENTED NEUTROPHIL / BASOPHIL / EOSINOPHIL / ERYTHROCYTE COUNT / HEMATOCRIT / HEMOGLOBIN / LEUKOCYTE COUNT / LYMPHOCYTE / MEAN CORPUSCULAR HEMOGLOBIN / MEAN CORPUSCULAR HEMOGLOBIN CONCENTRATION / MEAN CORPUSCULAR VOLUME / MONOCYTE / NEUTROPHIL / NUCLEATED RED BLOOD CELLS / PLATELET COUNT: tissue Blood; for ALANINE AMINOTRANSFERASE / ALBUMIN / ALKALINE PHOSPHATASE / ASPARTATE AMINOTRANSFERASE / BLOOD UREA NITROGEN / CARBON DIOXIDE / CHLORIDE / CHOLESTEROL / CREATINE PHOSPHOKINASE / CREATININE / GLUCOSE / LACTATE DEHYDROGENASE / LIPASE / PHOSPHORUS / POTASSIUM / SODIUM / TOTAL BILIRUBIN / TOTAL PROTEIN / URIC ACID: tissue Plasma
[1] = 2500 mg/kg, 120 h, dose level High, time 5 day
[2] = […], 72 h, dose 5.4 mg/Kg, dose level Low, time 3 day
[3] = […], 120 h, dose 5.4 mg/Kg, dose level Low, time 5 day

In the case of `CN1CCC[C@@H]1CCO[C@](C)(c1ccccc1)c1ccc(Cl)cc1` [CLEMASTINE], the “ABSOLUTE BASOPHIL” value [1] is reported as 0 CELLS/uL, the “ABSOLUTE EOSINOPHIL” value [1] is reported as 0 CELLS/uL and the “ABSOLUTE LYMPHOCYTE” value [1] is reported as 7767.5 CELLS/uL. The “ABSOLUTE MONOCYTE” value [1] was 575 CELLS/uL, the “ABSOLUTE SEGMENTED NEUTROPHIL” value [1] was 8407.5 CELLS/uL and the BASOPHIL [1] was 0%. For the same compound, the EOSINOPHIL [1] was 0%, the “ERYTHROCYTE COUNT” value [1] was 7.67 x10E6/uL and the HEMATOCRIT [1] was 45.5%. The HEMOGLOBIN [1] was 18 G/DL, the “LEUKOCYTE COUNT” value [1] was 16.75 x10E3/uL and the LYMPHOCYTE [1] was 45.5%. For the same compound, the “MEAN CORPUSCULAR HEMOGLOBIN” value [1] was 23.5 pg, the “MEAN CORPUSCULAR HEMOGLOBIN CONCENTRATION” value [1] was 39.55 G/DL and the “MEAN CORPUSCULAR VOLUME” value [1] was 59.4 fL. For the same compound, the MONOCYTE [1] was 3.5%, the NEUTROPHIL [1] was 51% and the “NUCLEATED RED BLOOD CELLS” value [1] was 0 /100WBC. The “PLATELET COUNT” value [1] was 1417 x10E3/uL, the “ALANINE AMINOTRANSFERASE” value [1] was 189 u/L and the ALBUMIN [1] was 3.45 G/DL. For the same compound, the “ALKALINE PHOSPHATASE” value [1] was 274 u/L, the “ASPARTATE AMINOTRANSFERASE” value [1] was 822.5 u/L and the “BLOOD UREA NITROGEN” value [1] was 37 mg/dL. For the same compound, the “CARBON DIOXIDE” value [1] was 21.5 mmol/L, the CHLORIDE [1] was 84 MEQ/L and the CHOLESTEROL [1] was 24 mg/dL. For the same compound, the “CREATINE PHOSPHOKINASE” value [1] was 1389.5 u/L, the CREATININE [1] was 0.24 mg/dL and the GLUCOSE [1] was 68.5 mg/dL. The “LACTATE DEHYDROGENASE” value [1] was 1904 u/L, the LIPASE [1] was 11 u/L and the PHOSPHORUS [1] was 22.25 mg/dL. For the same compound, the POTASSIUM [1] was 6.91 MEQ/L, the SODIUM [1] was 139.35 MEQ/L and the “TOTAL BILIRUBIN” value [1] was 0.25 mg/dL. The “TOTAL PROTEIN” value [1] was 5.3 G/DL, the “URIC ACID” value [1] was 6.55 mg/dL and the “ABSOLUTE BASOPHIL” value [2] was 0 CELLS/uL. The “ABSOLUTE EOSINOPHIL” value [2] was 41.67 CELLS/uL, the “ABSOLUTE LYMPHOCYTE” value [2] was 12326.67 CELLS/uL and the “ABSOLUTE MONOCYTE” value [2] was 80.67 CELLS/uL. The “ABSOLUTE SEGMENTED NEUTROPHIL” value [2] was 1517.67 CELLS/uL, the BASOPHIL [2] was 0% and the EOSINOPHIL [2] was 0.33%. For the same compound, the “ERYTHROCYTE COUNT” value [2] was 5.26 x10E6/uL, the HEMATOCRIT [2] was 33.9% and the HEMOGLOBIN [2] was 13.3 G/DL. For the same compound, the “LEUKOCYTE COUNT” value [2] was 13.97 x10E3/uL, the LYMPHOCYTE [2] was 88% and the “MEAN CORPUSCULAR HEMOGLOBIN” value [2] was 25.3 pg. For the same compound, the “MEAN CORPUSCULAR HEMOGLOBIN CONCENTRATION” value [2] was 39.23 G/DL, the “MEAN CORPUSCULAR VOLUME” value [2] was 64.53 fL and the MONOCYTE [2] was 0.67%. For the same compound, the NEUTROPHIL [2] was 11%, the “NUCLEATED RED BLOOD CELLS” value [2] was 0 /100WBC and the “PLATELET COUNT” value [2] was 1091.33 x10E3/uL. The “ALANINE AMINOTRANSFERASE” value [2] was 56 u/L, the ALBUMIN [2] was 4.07 G/DL and the “ALKALINE PHOSPHATASE” value [2] was 313.67 u/L. The “ASPARTATE AMINOTRANSFERASE” value [2] was 78.33 u/L, the “BLOOD UREA NITROGEN” value [2] was 16 mg/dL and the “CARBON DIOXIDE” value [2] was 30 mmol/L. For the same compound, the CHLORIDE [2] was 100.33 MEQ/L, the CHOLESTEROL [2] was 87 mg/dL and the “CREATINE PHOSPHOKINASE” value [2] was 239.33 u/L. The CREATININE [2] was 0.19 mg/dL, the GLUCOSE [2] was 158.67 mg/dL and the “LACTATE DEHYDROGENASE” value [2] was 247.33 u/L. The LIPASE [2] was 9.33 u/L, the PHOSPHORUS [2] was 11.17 mg/dL and the POTASSIUM [2] was 5.9 MEQ/L. The SODIUM [2] was 141.47 MEQ/L, the “TOTAL BILIRUBIN” value [2] was 0.2 mg/dL and the “TOTAL PROTEIN” value [2] was 5.63 G/DL. For the same compound, the “URIC ACID” value [2] was 1.23 mg/dL, the “ABSOLUTE BASOPHIL” value [3] was 0 CELLS/uL and the “ABSOLUTE EOSINOPHIL” value [3] was 52.33 CELLS/uL. The “ABSOLUTE LYMPHOCYTE” value [3] was 12918 CELLS/uL, the “ABSOLUTE MONOCYTE” value [3] was 156.33 CELLS/uL and the “ABSOLUTE SEGMENTED NEUTROPHIL” value [3] was 1306.67 CELLS/uL. For the same compound, the BASOPHIL [3] was 0%, the EOSINOPHIL [3] was 0.33% and the “ERYTHROCYTE COUNT” value [3] was 5.68 x10E6/uL. The HEMATOCRIT [3] was 35.67%, the HEMOGLOBIN [3] was 14.13 G/DL and the “LEUKOCYTE COUNT” value [3] was 14.43 x10E3/uL. For the same compound, the LYMPHOCYTE [3] was 89.33%, the “MEAN CORPUSCULAR HEMOGLOBIN” value [3] was 24.93 pg and the “MEAN CORPUSCULAR HEMOGLOBIN CONCENTRATION” value [3] was 39.67 G/DL. For the same compound, the “MEAN CORPUSCULAR VOLUME” value [3] was 62.87 fL, the MONOCYTE [3] was 1.33% and the NEUTROPHIL [3] was 9%. The “NUCLEATED RED BLOOD CELLS” value [3] was 0.33 /100WBC, the “PLATELET COUNT” value [3] was 866 x10E3/uL and the “ALANINE AMINOTRANSFERASE” value [3] was 51 u/L. The ALBUMIN [3] was 4.57 G/DL, the “ALKALINE PHOSPHATASE” value [3] was 318.67 u/L and the “ASPARTATE AMINOTRANSFERASE” value [3] was 79.67 u/L. For the same compound, the “BLOOD UREA NITROGEN” value [3] was 14 mg/dL, the “CARBON DIOXIDE” value [3] was 30.33 mmol/L and the CHLORIDE [3] was 101.33 MEQ/L. For the same compound, the CHOLESTEROL [3] was 68.33 mg/dL, the “CREATINE PHOSPHOKINASE” value [3] was 200.33 u/L and the CREATININE [3] was 0.16 mg/dL. For the same compound, the GLUCOSE [3] was 155.33 mg/dL, the “LACTATE DEHYDROGENASE” value [3] was 118.67 u/L and the LIPASE [3] was 10 u/L. For the same compound, the PHOSPHORUS [3] was 10.77 mg/dL, the POTASSIUM [3] was 6.13 MEQ/L and the SODIUM [3] was 141.6 MEQ/L. The “TOTAL BILIRUBIN” value [3] was 0.2 mg/dL, the “TOTAL PROTEIN” value [3] was 6.3 G/DL and the “URIC ACID” value [3] was 1.47 mg/dL.
